According to patent US8921365B2, “Pharmaceutical composition, substrate comprising a pharmaceutical composition, and use of a pharmaceutical composition” (priority 2007, dated 2014):
Like-named read-outs stand apart in the source and are kept apart here.

Assays:
S. aureus BAA44 [1] = assay: Acute infection of osteoblastic MG63 cells without lysostaphin, CFU per well of intracellular and adhered bacteria; format: cell-based, Staphylococcus aureus; details: for effect on CFU per well of intracellular and adhered S. aureus BAA44: 18 h, FIG. 6
Procedure: (§1) Osteoblastic MG63 cells were detached with the cell detachment medium Accutase 24 hours before infection. The cell number was determined using the Neubauer counting chamber. Cells were seeded onto uncoated 24 well plates with a cell density of 1.5×10^4 cells/cm^2 in 1 ml DMEM (Dulbecco's Modified Eagle's Medium) with 10% FCS (fetal calf serum), 1% Glutamax-I and 1% Natrium Pyruvat and incubated at 37° C. and 5% CO2.
The cell culture supernatant of the osteoblastic MG63 cells was removed with a pipette from the wells. 1 ml containing 1×10^6 S. aureus BAA44 CFU was added to each well containing also antibiotics having the following compositions: • 50 μg/ml vancomycin • 2.5 μg/ml rifampin • 1.25-10 μg/ml daptomycin • and their mixtures in different ratios as given below.
The combined osteoblastic cells, bacteria, and antibiotic compositions were incubated for 18 h at 37° C. under 5% CO2 atmosphere.
Afterwards the cells were washed once with PBS pH 7.4 (phosphate buffer solution) followed by lysis with 1 ml 0.1% Triton X100 in ringer's solution. The lysates were thoroughly resuspended with a pipette. Only one 24 well plate was handled and the other plates were stored at 4° C. in order to minimize bacterial growth in the lysate.
(§2) The lower the CFU value is the lower is the infection rate of the osteoblastic cells with S. aureus BAA44. This correlates to the efficacy of the added antibiotic.

S. aureus BAA44 [2] = assay: Adhesion of bacteria on coated titanium discs, CFU per disc; format: cell-based, Staphylococcus aureus; details: 1.5 h, 200 μg/cm^2 vancomycin or 50 μg/cm^2 rifampin + 200 μg/cm^2 fosfomycin calcium, FIG. 5c
Procedure: The experimental set up was essentially the same as described above for S. aureus ATTC 6538P.
The coated titanium discs were washed either once or twice with 5 ml PBS before incubation with S. aureus BAA44 for 1.5 h.

[3] = tested on: S. aureus ATTC 6538P in osteoblastic MG63 cells; assay: Intracellular infection of osteoblastic MG63 cells after lysostaphin, metabolic activity (MTT, absorbance 540 nm); details: 24 h
S. aureus BAA44 [4] = assay: Bactericidal activity of coated titanium discs in Minimal Medium, CFU in supernatant and on discs; format: cell-based, Staphylococcus aureus; details: 15.5 h in Minimal Medium, discs washed three times
Procedure: The bacterial density was determined photometrically.
The Minimal Medium was used instead of Caso Bouillon to minimize the bacterial growth.
Afterwards the CFU in the supernatant as well as the adhered bacteria on the titanium discs were analysed. The supernatant was diluted 1:10 in PBS, 100 μl of the dilution were streaked out on Caso agar plates.

S. aureus ATTC 6538P [5] = details: 200 μg/cm^2 vancomycin, FIG. 5a
Procedure: An overnight culture of S. aureus ATTC 6538P was prepared by infecting 5 ml Caso-Bouillon medium with S. aureus ATTC 6538P. The cultures were incubated with shaking (450 U/min) over night at 37° C. 100 μl of the overnight cultures were transferred into 5 ml Caso Boulillon medium and incubated for 2 h at 37° C. with shaking (450 U/min). The bacterial density was determined photometrically. The bacterial suspension was diluted 1:2 in Caso Bouillon prior measurement. A bacterial suspension with a density of 1×10^5 CFU/ml in Caso Boullion with 10% FCS was used for the adhesion experiments.
After coating the titanium discs were washed either one time or three times with PBS. The coated and uncoated titanium discs were incubated for 5 min at room temperature with 5 ml PBS. This was repeated two more times. In the third circle the titanium discs were incubated for 1 h at room temperature. Before removing the PBS solution the titanium discs were turned or swiveled in order to increase the detachment of the antibiotics. Afterwards the titanium discs were transferred into sterile 12 well plates. […]
Afterwards the bacterial suspension was removed and the discs were washed three times with 2.5 ml PBS. […] The agar plates were incubated over night at 37° C. and the next day the colonies were counted.

S. aureus ATTC 6538P [6] = assay: Extracellular infection of osteoblastic MG63 cells, CFU in cell culture supernatant; format: cell-based, Staphylococcus aureus; details: 24 h; 100 μg/ml gentamicin, 1 μg/ml rifampin, 100 μg/ml fosfomycin disodium, alone or combined with rifampin; FIG. 1
Procedure: as §1
The cell culture supernatant of the osteoblastic MG63 cells was removed with a pipette from the wells. 1 ml containing 1×10^6 S. aureus ATTC 6538P cells was added to each well. Two 24 well plates were incubated with S. aureus ATTC 6538P. The combined osteoblastic cells and bacteria were incubated for 1.5 h at 37° C. under 5% CO2 atmosphere. The presence of bacteria was determined using a microscope.
After 1.5 h the supernatant was removed and the wells were carefully washed twice with 37° C. warm DMEM without additives. It was microscopically checked, if not too many cells were detached during the washing procedure.
After incubation for 24 h, 100 μl of the cell culture supernatant was streaked out on Caso agar plates (Casein-peptone soymeal-peptone broth) directly, e.g. in case of rifampin, fosfomycin, rifampin/fosfomycin and rifmpicin/gentamicin, or after appropriate dilution, e.g. 1:100 in case of gentamicin, and incubated overnight at 37° C. […]

S. aureus BAA44 [7] = assay: as above; format: cell-based, Staphylococcus aureus; details: 24 h; 100 μg/ml vancomycin, 10 μg/ml rifampin, 100 μg/ml fosfomycin, alone or combined with rifampin; rifampin resistant MRSA strain; FIG. 2
Procedure: Following antibiotics were used: • 100 μg/ml vancomycin • 10 μg/ml rifampin • 100 μg/ml fosfomycin • 10 μg/ml rifampin+100 μg/ml fosfomycin • 10 μg/ml rifampin+100 μg/ml vancomycin.
After incubation for 24 h 100 μl of the cell culture were streaked out on Caso agar plates (Casein-peptone soymeal-peptone broth) directly, e.g. in case of vancomycin, rifampin/fosfomycin and rifampin/vancomycin, or after appropriate dilution, e.g. 1:100 in case of rifampin and fosfomycin, and incubated overnight at 37° C. The supernatant of two wells per group was streaked out.

[8] = tested on: S. aureus BAA44 in osteoblastic MG63 cells; assay: Intracellular infection of osteoblastic MG63 cells after lysostaphin, cell lysis and intracellular CFU count; format: cell-based, Staphylococcus aureus; details: 24 h; fosfomycin 50-400 μg/ml, rifampin 2.5-40 μg/ml, mixtures in varying ratios; FIG. 4a-g
Procedure: Only one 24 well plate was handled and the other plates were stored at 4° C. in order to minimize bacterial growth in the lysate.
as §2

[9] = in vivo; cited from earlier work
S. aureus = details: drug concentration-dependent; cited from earlier work
[10] = 2.5 μg/ml rifampin, 50 μg/ml vancomycin
[11] = 100 μg/ml vancomycin, 100 μg/ml gentamicin, 0.01-100 μg/ml rifampin, 1 μg/ml rifampin + 100 μg/ml fosfomycin or gentamicin, FIG. 3a-d

CCCCCCCCCC(=O)N[C@@H](Cc1c[nH]c2ccccc12)C(=O)N[C@H](CC(N)=O)C(=O)N[C@@H](CC(=O)O)C(=O)N[C@@H]1C(=O)NCC(=O)N[C@@H](CCCN)C(=O)N[C@@H](CC(=O)O)C(=O)N[C@H](C)C(=O)N[C@@H](CC(=O)O)C(=O)NCC(=O)N[C@H](CO)C(=O)N[C@@H]([C@H](C)CC(=O)O)C(=O)N[C@@H](CC(=O)c2ccccc2N)C(=O)O[C@@H]1C [daptomycin]
effect on CFU per well of intracellular and adhered S. aureus BAA44 (S. aureus BAA44 [1]; 1.25 μg/ml daptomycin): good efficacy
effect on CFU per well of intracellular and adhered S. aureus BAA44 (S. aureus BAA44 [1]; 2.5 μg/ml daptomycin): good efficacy
effect on CFU per well of intracellular and adhered S. aureus BAA44 (S. aureus BAA44 [1]; 5 μg/ml daptomycin): eradicate the infection completely
effect on CFU per well of intracellular and adhered S. aureus BAA44 (S. aureus BAA44 [1]; 10 μg/ml daptomycin): eradicate the infection completely

CN[C@H](CC(C)C)C(=O)N[C@H]1C(=O)N[C@@H](CC(N)=O)C(=O)N[C@H]2C(=O)N[C@H]3C(=O)N[C@H](C(=O)N[C@H](C(=O)O)c4cc(O)cc(O)c4-c4cc3ccc4O)[C@H](O)c3ccc(c(Cl)c3)Oc3cc2cc(c3O[C@@H]2O[C@H](CO)[C@@H](O)[C@H](O)[C@H]2O[C@H]2C[C@](C)(N)[C@H](O)[C@H](C)O2)Oc2ccc(cc2Cl)[C@H]1O [vancomycin]
effect on CFU per well of intracellular and adhered S. aureus BAA44 (S. aureus BAA44 [1]; [10]): several hundred
anti-adhesive effect, CFU per titanium disc (S. aureus BAA44 [2]; discs washed once): reduced the adhesion
anti-adhesive effect, CFU per titanium disc (S. aureus BAA44 [2]; discs washed twice): no reduction of bacterial adhesion
metabolic activity of infected osteoblastic MG63 cells [3, 11]: strongly reduced
bactericidal effect of the coating (S. aureus BAA44 [4]): could not exhibit any bactericidal effect
CFU in the supernatant (S. aureus BAA44 [4]; 200 μg/cm^2 vancomycin or 300 μg/cm^2 fosfomycin calcium + 70 μg/cm^2 rifampin, FIG. 5d): reduced the bacterial growth in the cell culture supernatant compared to the uncoated control slightly
CFU adhered to the titanium disc (S. aureus BAA44 [4]; FIG. 5d): more than 50,000 CFU
anti-adhesive effect, CFU per titanium disc (S. aureus ATTC 6538P [5]; discs washed one time before 1.5 h incubation): anti-adhesive effect after one washing step
anti-adhesive effect, CFU per titanium disc (S. aureus ATTC 6538P [5]; discs washed three times before 1.5 h incubation): did not reveal any anti-adhesive effect

C[C@@H]1O[C@@H]1P(=O)(O)O [fosfomycin]
effect on CFU of S. aureus ATTC 6538P in cell culture supernatant (S. aureus ATTC 6538P [6]): moderate
effect on CFU of S. aureus BAA44 in cell culture supernatant (S. aureus BAA44 [7]): relatively small
effect on CFU per well of intracellular located S. aureus BAA44 [8]: good efficacy
metabolic activity of infected osteoblastic MG63 cells ([3]; 10 μg/ml fosfomycin, FIG. 3b): increases the metabolic activity only slightly
metabolic activity of infected osteoblastic MG63 cells ([3]; 100 μg/ml fosfomycin, FIG. 3b): almost doubled
concentrations allowing for intravenous application [9]: 100 to 400 µg/mL
concentrations allowing for intravenous application, preferred, in serum [9]: 132 to 297 µg/mL

O=C(O)c1ccccc1O [salicylic acid]
maximum reduction of S. aureus virulence parameters (S. aureus): approximately 50%

CO[C@H]1/C=C/O[C@@]2(C)Oc3c(C)c(O)c4c(O)c(c(/C=N/N5CCN(C)CC5)c(O)c4c3C2=O)NC(=O)/C(C)=C\C=C\[C@H](C)[C@H](O)[C@@H](C)[C@@H](O)[C@@H](C)[C@H](OC(C)=O)[C@@H]1C [rifampin]
effect on CFU of S. aureus ATTC 6538P in cell culture supernatant (S. aureus ATTC 6538P [6]): moderate
effect on CFU of S. aureus BAA44 in cell culture supernatant (S. aureus BAA44 [7]): hardly any efficacy
effect on CFU per well of intracellular located S. aureus BAA44 [8]: good intracellular potency
overgrowth of the MG63 cells with planktonic S. aureus BAA44 (S. aureus BAA44 [1]; 2.5 μg rifampin, data not shown): prevented efficacious
effect on CFU per well of intracellular and adhered S. aureus BAA44 (S. aureus BAA44 [1]; [10]): less than for vancomycin and daptomycin
metabolic activity of infected osteoblastic MG63 cells [3, 11]: reduce the cell death caused by S. aureus ATTC 6538P drastically
concentration sufficient in increasing the metabolic activity ([3]; FIG. 3a): 0.006 µg/mL
